Results as given in the NIST ThermoML archive (doi:10.1016/j.jct.2012.02.004).

Test: xn = mol fraction of the nth substance listed
Conditions: 298.15 K, 101 kPa, Liquid, Taylor dispersion method

**Q.** With `C[N+](C)(C)CCCCCCCCCCCC[N+](C)(C)C.[Br-].[Br-]` + O as the compound, how does the binary diffusion coefficient (x1 = 0) read?
**A.** 1.01e-09 m2/s

**Q.** What about the binary diffusion coefficient (x1 = 0.00119) of the same compound?
**A.** 9.72e-10 m2/s

**Q.** And the binary diffusion coefficient (x1 = 0.00475)?
**A.** 9.45e-10 m2/s

**Q.** And the binary diffusion coefficient (x1 = 0.0095)?
**A.** 9.11e-10 m2/s

**Q.** What about the binary diffusion coefficient (x1 = 0.019) of the same compound?
**A.** 8.7e-10 m2/s

**Q.** And the binary diffusion coefficient (x1 = 0.038)?
**A.** 8.05e-10 m2/s

**Q.** For `C[N+](C)(C)CCCCCCCCCC[N+](C)(C)C.[Br-].[Br-]` [decamethonium bromide] + O, which binary diffusion coefficient (x1 = 0) is on record?
**A.** 1.06e-09 m2/s

**Q.** And the binary diffusion coefficient (x1 = 0.00119)?
**A.** 9.9e-10 m2/s

**Q.** And the binary diffusion coefficient (x1 = 0.00475)?
**A.** 9.55e-10 m2/s

**Q.** What about the binary diffusion coefficient (x1 = 0.0095) of the same compound?
**A.** 9.04e-10 m2/s

**Q.** What about the binary diffusion coefficient (x1 = 0.019) of the same compound?
**A.** 8.61e-10 m2/s

**Q.** And the binary diffusion coefficient (x1 = 0.038)?
**A.** 8.43e-10 m2/s
